Reference: patent US20240174692A1, “PYRIMIDINE AROMATIC RING COMPOUNDS” (Medshine Discovery Inc., priority 2021, published 2024)
pIC50: −log10 of the molar value.

What was measured:
[1] = test system: plasma protein; assay: Plasma protein binding (PPB), equilibrium dialysis, H plasma; assay type: in vitro ADME, human; settings: 2 μM, 4 hr dialysis
Protocol: (§1) Assay procedure: 995 μL of blank plasma of various genera were weighed, and 5 μL of assay compound working solution (400 μM) or warfarin working solution (400 μM) was added so that the final concentrations of the assay compound and warfarin in plasma sample were each 2 μM. The samples were mixed thoroughly. The final concentration of DMSO (the organic phase) was 0.5%. 50 μL of the plasma samples of the assay compound and warfarin were pipetted to a sample receiving plate (in triplicate), and the corresponding volume of corresponding blank plasma or buffer was added immediately, so that the final volume in each sample well was 100 μL, wherein the volume ratio of plasma:dialysis buffer was 1:1. 500 μL of stop solution was then added to these samples. These samples were used as T0 samples for determination of recovery and stability. […] All samples were subjected to protein precipitation, and then analyzed by LC/MS/MS. Bound rate and recovery rate of protein were calculated using the following formulae: % Unbound=100*F/T % Bound=100−% Unbound, % Recovery=100*(F+T)/T0 (wherein F is the peak area ratio of the compound in the dialysate after 4 h of dialysis; T is the peak area ratio of the compound in the plasma after 4 h of dialysis; T0 is the peak area ratio of the compound in the plasma sample at time zero).

[2] = Pharmacokinetic evaluation of compounds in rats; assay type: in vivo; settings: rat, plasma, SD rats
Protocol: Purpose of assay: To assay the pharmacokinetic data of the compounds in SD rats in vivo.
(§2) Compounds were mixed with vehicle 5% DMSO/95% (10% HP-β-CD in water), and the mixture was vortexed and sonicated to give a clear solution of 0.3 mg/mL. The candidate compound solutions were administered intravenously. Whole blood was collected for a certain period of time to prepare plasma. The drug concentration was analyzed by LC-MS/MS method, and pharmacokinetic parameters were calculated.
as §2, with “a” for “a clear”, “7” for “0.3”, “orally.” for “intravenously.”

[3] = molecular target: KRAS^G12D binding to c-Raf (Homo sapiens (Human), UniProt P01116, G12D); assay: SOS1-mediated binding of KRAS^G12D to effector protein c-Raf (TR-FRET); assay type: biochemical
[4] = test system: plasma protein; assay: Plasma protein binding (PPB), equilibrium dialysis, D plasma; assay type: in vitro ADME, dog; settings: 2 μM, 4 hr dialysis
Protocol: as §1

[5] = test system: p-ERK in GP2D cells; assay: Assay of p-ERK inhibition in GP2D cells (HTRF); assay type: cell-based; settings: Homo sapiens, 1 hour incubation
Protocol: 2. Assay Process • 1) GP2D cells were inoculated in a transparent 96-well cell culture plate, and each well contained 80 μL of cell suspension and 8000 cells. The cell plate was inoculated in a carbon dioxide incubator at 37° C. overnight; • 2) 2 μL of the compound was weighed and added to 78 μL of the cell medium. After the mixture was mixed thoroughly, 20 μL of the solution of compound was weighed and added to the corresponding well of the cell plate. The cell plate was placed back to the carbon dioxide incubator and incubated for another 1 hour; • 3) After completion of the incubation, the cell supernatant was discarded. 50 μL of 1× cell lysate was added to each well. The mixture was incubated with shaking at room temperature for 30 minutes; • 4) Phospho-ERK1/2 Eu Cryptate antibody and Phospho-ERK1/2 d2 antibody were diluted 20-fold with detection buffer; • 5) 16 μL of cell lysate supernatant was weighed and added into each well of a new 384 white microwell plate, and then 2 μL of the diluted solution of Phospho-ERK1/2 Eu Cryptate antibody and 2 μL of the diluted solution of Phospho-ERK1/2 d2 antibody dilution were added. The mixture was incubated at room temperature for at least 4 hours; • 6) After completion of the incubation, HTRF was read with multi-label analyzer: excitation: 320 nm, emission: 615 nm, 665 nm; • 7). IC50 of the compounds to be assayed was calculated.

[6] = test system: plasma protein; assay: Plasma protein binding (PPB), equilibrium dialysis, R plasma; assay type: in vitro ADME, rat; settings: 2 μM, 4 hr dialysis
Protocol: as §1

[7] = test system: plasma protein; assay: Plasma protein binding (PPB), equilibrium dialysis, M plasma; assay type: in vitro ADME, mouse; settings: 2 μM, 4 hr dialysis
Protocol: as §1

[8] = Pharmacokinetic evaluation of compounds in dogs; assay type: in vivo; settings: dog, plasma, Beagle dogs
Protocol: Purpose of assay: To assay the pharmacokinetic data of the compounds in Beagle dogs in vivo.
as §2, with “Compound 014 was” for “Compounds were”, “20% DMSO/60% PEG400/20%” for “5% DMSO/95%”, “4” for “0.3”
as §2, with “Compound 014 was” for “Compounds were”, “mixed (15 mg/mL)” for “mixed”, “20% DMSO/60% PEG400/20%” for “5% DMSO/95%”, “solutions” for “a clear solution”, “6 mg/mL to 15” for “0.3”, “orally.” for “intravenously.”

[9] = test system: plasma protein; assay: Plasma protein binding (PPB), equilibrium dialysis, C plasma; assay type: in vitro ADME, monkey; settings: 2 μM, 4 hr dialysis
Protocol: as §1

Sequence of KRAS^G12D binding to c-Raf (P01116-2 other isoform, or with tags, fused parts or gaps G12D): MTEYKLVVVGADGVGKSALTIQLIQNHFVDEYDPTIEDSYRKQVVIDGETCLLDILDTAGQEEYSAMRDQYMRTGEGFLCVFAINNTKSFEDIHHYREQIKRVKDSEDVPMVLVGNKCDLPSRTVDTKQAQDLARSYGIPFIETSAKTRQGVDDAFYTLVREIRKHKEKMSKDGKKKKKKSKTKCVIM

C#Cc1c(F)ccc2cc(N)cc(-c3ccc4c(N5CC6CCC(C5)N6)nc(OC[C@@]56CCCN5C[C@H](F)C6)nc4c3F)c12 [Compound 014]
Unbound PPB H [1]: 18.5%
AUC(0-inf) ([2]; IV, 1.56 mg/kg): 0.15 µM·h
C0 ([2]; IV, 1.56 mg/kg): 971 nM
Vd ([2]; IV, 1.56 mg/kg): 5.89 L/kg
clearance ([2]; IV, 1.56 mg/kg): 271 mL/min/kg
half-life ([2]; IV, 1.56 mg/kg): 0.56 h
AUC(0-inf) ([2]; PO, 31.7 mg/kg): 0.427 µM·h
Cmax ([2]; PO, 31.7 mg/kg): 182 nM
bioavailability ([2]; PO, 31.7 mg/kg): 12.5%
half-life ([2]; PO, 31.7 mg/kg): 6.8 h
pIC50 [3]: 7.92
Unbound PPB D [4]: 3.0%
pIC50 [5]: 9.37
Unbound PPB R [6]: 2.0%
Unbound PPB M [7]: 4.5%
AUC(0-inf) ([8]; IV, 1.56 mg/kg): 0.15 µM·h
C0 ([8]; IV, 1.56 mg/kg): 971 nM
Vd ([8]; IV, 1.56 mg/kg): 5.89 L/kg
clearance ([8]; IV, 1.56 mg/kg): 271 mL/min/kg
half-life ([8]; IV, 1.56 mg/kg): 0.56 h
AUC(0-inf) ([8]; PO, 32.1 mg/kg): 0.969 µM·h
Cmax ([8]; PO, 32.1 mg/kg): 439 nM
bioavailability ([8]; PO, 32.1 mg/kg): 16.9%
half-life ([8]; PO, 32.1 mg/kg): 10.8 h
Unbound PPB C [9]: 2.8%
